Laboratory results reported in the supplement of paper PMC10331698.
± gives the standard deviation of the averaged measurements.

Tests used:
Assay in all cases: level (log10 ratio to DMSO vehicle control); higher = higher biomarker level / cell amount than vehicle control
Conditions in all cases: in DMSO
[1] = compound: OCC(F)(F)C(F)(F)C(F)(F)C(F)(F)C(F)(F)C(F)(F)C(F)(F)C(F)(F)CO [1H,1H,10H,10H-Perfluorodecane-1,10-diol]
Experimental: (§1)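 BioMAP Diversity Plus panel of 12 human primary cell co-culture systems (3C, 4H, LPS, SAg, BT, BF4T, BE3C, CASM3C, HDF3CGF, KF3CT, MyoF, Mphg). Compounds were added 1 h before stimulation and left for 24 h (MyoF 48 h; BT 72 h for soluble read-outs or 6 d for IgG). Biomarkers were read by ELISA, cytotoxicity by SRB, PBMC viability and proliferation by Alamar Blue. Each well value was divided by the mean of 8 DMSO control wells on the same plate and log10 transformed; duplicate blinded samples were tested at 4 concentrations.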

[2] = compound: OCCCCC(F)(F)C(F)(F)C(F)(F)C(F)(F)F [4:4 Fluorotelomer alcohol]
Experimental: as §1

[3] = compound: O=P(O)(O)CCC(F)(F)C(F)(F)C(F)(F)C(F)(F)C(F)(F)C(F)(F)F [2-(Perfluorohexyl)ethylphosphonic acid]
Experimental: as §1

Test System | level (log10) ([1]; 6700 nM) | level (log10) ([1]; 20000 nM) | level (log10) ([1]; 60000 nM) | level (log10) ([2]; 6700 nM) | level (log10) ([2]; 20000 nM) | level (log10) ([2]; 60000 nM) | level (log10) ([3]; 6700 nM) | level (log10) ([3]; 20000 nM) | level (log10) ([3]; 60000 nM)
CASM3C:SRB | 0.0015 ± 0.0021 | -0.002 ± 0.0099 | -0.067 | -0.0045 ± 0.00071 | 0.0015 ± 0.012 | -0.0025 ± 0.016 | -0.0005 ± 0.0035 | -0.012 ± 0.017 | -0.016 ± 0.02
KF3CT:uPA | 0.007 ± 0.0042 | 0.009 ± 0.0071 | -0.021 | 0.01 ± 0.016 | -0.0005 ± 0.00071 | 0.0005 ± 0.022 | 0.007 ± 0.0057 | 0.013 ± 0.011 | 0.015 ± 0.02
MyoF:CXCL8/IL-8 | -0.0285 ± 0.0021 | -0.033 ± 0.013 | 0.025 | 0.041 ± 0.075 | 0.0345 ± 0.1 | 0.0695 ± 0.13 | -0.013 ± 0.013 | 0.018 ± 0.018 | 0.0795 ± 0.018
CASM3C:CD106/VCAM-1 | 0 ± 0.02 | -0.0065 ± 0.025 | -0.151 | -0.015 ± 0.03 | -0.0205 ± 0.00071 | 0.006 ± 0.027 | -0.0105 ± 0.035 | 0.041 ± 0.014 | 0.0775 ± 0.044
HDF3CGF:CXCL8/IL-8 | 0.004 ± 0.013 | -0.0055 ± 0.021 | -0.081 | -0.0065 ± 0.0035 | 0.01 ± 0.0071 | 0.01 ± 0.0014 | -0.005 ± 0.0042 | -0.0125 ± 0.00071 | 0.012 ± 0.0071
3C:CD54/ICAM-1 | -0.01 ± 0.0014 | -0.0035 ± 0.005 | -0.006 | 0 ± 0.037 | -0.017 ± 0.041 | -0.002 ± 0.047 | -0.0165 ± 0.012 | -0.018 ± 0.0014 | -0.0095 ± 0.005
MyoF:Decorin | 0.004 ± 0.027 | -0.0005 ± 0.042 | 0.007 | 0.0115 ± 0.0035 | -0.0015 ± 0.028 | 0.033 ± 0.057 | -0.0035 ± 0.023 | 0.0075 ± 0.0021 | 0.0385 ± 0.00071
KF3CT:CXCL10/IP-10 | -0.006 ± 0.0042 | -0.0195 ± 0.0078 | -0.104 | 0.0105 ± 0.04 | 0.02 ± 0.03 | 0.0275 ± 0.037 | -0.009 ± 0.0057 | 0.0035 ± 0.0078 | 0.0045 ± 0.005
HDF3CGF:PAI-I | -0.0005 ± 0.0035 | 0.007 ± 0.0014 | -0.564 | -0.0015 ± 0.012 | 0.0075 ± 0.03 | 0.0075 ± 0.054 | -0.027 ± 0.023 | -0.027 ± 0.0014 | -0.0925 ± 0.021
MyoF:SRB | -0.012 | -0.019 ± 0.017 | -0.098 | -0.0025 ± 0.0035 | -0.0065 ± 0.0021 | 0.006 ± 0.017 | -0.0075 ± 0.011 | -0.004 ± 0.0071 | -0.007 ± 0.0057
MyoF:CD106/VCAM-1 | 0.0025 ± 0.021 | -0.0025 ± 0.025 | -0.19 | -0.004 ± 0.016 | -0.01 ± 0.018 | -0.0055 ± 0.0078 | 0.0025 ± 0.011 | 0.01 ± 0.0014 | -0.001
HDF3CGF:Proliferation 72hr | -0.0305 ± 0.046 | -0.112 ± 0.05 | -1.01 | -0.003 ± 0.044 | 0.0205 ± 0.057 | 0.0355 ± 0.039 | -0.009 ± 0.068 | 0.119 ± 0.021 | 0.191 ± 0.03
BE3C:Keratin 8/18 | -0.034 ± 0.0085 | -0.027 ± 0.0085 | -0.016 | -0.0025 ± 0.0035 | -0.012 ± 0.0042 | 0.0055 ± 0.015 | -0.012 ± 0.0071 | -0.0175 ± 0.0021 | 0.0115 ± 0.03
CASM3C:IL-6 | -0.045 ± 0.027 | -0.071 ± 0.025 | -0.059 | 0.0005 ± 0.016 | -0.0215 ± 0.025 | 0.0155 ± 0.077 | -0.0285 ± 0.005 | -0.0425 ± 0.018 | -0.0095 ± 0.025
HDF3CGF:CD54/ICAM-1 | 0.002 ± 0.027 | 0.005 ± 0.0028 | -0.753 | -0.0135 ± 0.0064 | -0.003 ± 0.011 | -0.0125 ± 0.013 | 0.045 ± 0.04 | 0.0145 ± 0.059 | 0.0065 ± 0.044
BE3C:tPA | 0.073 ± 0.021 | 0.097 ± 0.011 | -0.108 | -0.0075 ± 0.00071 | -0.013 ± 0.038 | 0.015 ± 0.021 | -0.0765 ± 0.022 | -0.0835 ± 0.0078 | -0.0615 ± 0.086
KF3CT:IL-1alpha | 0.005 ± 0.027 | -0.01 ± 0.021 | 0.109 | 0.0145 ± 0.029 | 0.005 ± 0.042 | 0.019 ± 0.03 | 0.0005 ± 0.0078 | 0.0225 ± 0.00071 | 0.0455 ± 0.012
CASM3C:PAI-I | -0.0095 ± 0.0035 | -0.011 ± 0.0042 | -0.01 | 0.017 ± 0.016 | 0.013 ± 0.023 | 0.0085 ± 0.026 | -0.0075 ± 0.00071 | -0.0055 ± 0.005 | 0.007 ± 0.013
HDF3CGF:TIMP-2 | -0.006 ± 0.014 | -0.0105 ± 0.00071 | -0.095 | -0.004 ± 0.0099 | 0.024 ± 0.028 | -0.0225 ± 0.026 | 0.0095 ± 0.042 | 0.0365 ± 0.036 | 0.0305 ± 0.036
MyoF:MMP-1 | -0.0415 ± 0.013 | -0.0275 ± 0.012 | 0.284 | 0.002 ± 0.0057 | 0.007 ± 0.023 | 0.032 ± 0.076 | 0.008 ± 0.0042 | 0.008 ± 0.0099 | 0.0755 ± 0.052
3C:CD142/Tissue Factor | -0.0585 ± 0.028 | -0.0685 ± 0.032 | -0.107 | -0.0215 ± 0.025 | -0.018 ± 0.042 | 0.0155 ± 0.0092 | 0.0325 ± 0.0078 | 0.04 ± 0.035 | 0.119 ± 0.0021
BE3C:uPA | -0.008 ± 0.011 | -0.0315 ± 0.0021 | -0.078 | 0.0035 ± 0.011 | -0.0115 ± 0.00071 | 0.0015 ± 0.0021 | -0.016 ± 0.0099 | -0.004 ± 0.0071 | 0.0075 ± 0.012
HDF3CGF:SRB | -0.0485 ± 0.021 | -0.0255 ± 0.091 | -0.224 | 0.0015 ± 0.036 | -0.0165 ± 0.0064 | 0.006 ± 0.018 | -0.025 ± 0.045 | 0.0355 ± 0.029 | 0.001 ± 0.05
HDF3CGF:EGFR | -0.0015 ± 0.015 | 0.003 ± 0.023 | -0.224 | -0.0155 ± 0.0035 | -0.0105 ± 0.0035 | 0.0195 ± 0.05 | -0.012 ± 0.034 | -0.0255 ± 0.005 | 0.0195 ± 0.025
CASM3C:CCL2/MCP-1 | 0 ± 0.0028 | -0.027 ± 0.0028 | 0.02 | -0.004 ± 0.011 | -0.025 ± 0.0099 | 0.0285 ± 0.059 | -0.009 ± 0.0028 | -0.0145 ± 0.013 | -0.003 ± 0.033
HDF3CGF:CXCL11/I-TAC | 0.013 ± 0.0042 | -0.031 ± 0.025 | -0.497 | 0.0075 ± 0.0078 | 0.0205 ± 0.0092 | -0.001 ± 0.014 | -0.005 | 0.0325 ± 0.0021 | 0.0425 ± 0.021
lMphg:CD40 | -0.0285 ± 0.0064 | -0.0695 ± 0.032 | -0.536 | -0.0295 ± 0.005 | -0.0195 ± 0.029 | -0.0055 ± 0.033 | -0.0155 ± 0.0021 | -0.0165 ± 0.00071 | -0.012 ± 0.041
CASM3C:CXCL8/IL-8 | -0.0275 ± 0.028 | -0.048 ± 0.0099 | -0.011 | 0.0125 ± 0.0035 | 0.0095 ± 0.032 | 0.026 ± 0.045 | -0.0185 ± 0.013 | -0.0015 ± 0.0021 | 0.0145 ± 0.005
